# Reference: patent publication US10906894B2, “Compounds containing benzo[d][1,3]oxathiole, benzo[d][1,3]oxathiole 3-oxide or benzo[d][1,3]oxathiole 3,3-dioxide and methods/uses thereof as agonists of g protein-coupled receptor 119” (PRAMANA PHARMACEUTICALS INC., priority 2016, dated 2021)
# Like-named read-outs stand apart in the source and are kept apart here.
# Molecular target: T1, GPR119 (Homo sapiens, UniProt Q8TDV5)
# T1 sequence (Q8TDV5 1-335): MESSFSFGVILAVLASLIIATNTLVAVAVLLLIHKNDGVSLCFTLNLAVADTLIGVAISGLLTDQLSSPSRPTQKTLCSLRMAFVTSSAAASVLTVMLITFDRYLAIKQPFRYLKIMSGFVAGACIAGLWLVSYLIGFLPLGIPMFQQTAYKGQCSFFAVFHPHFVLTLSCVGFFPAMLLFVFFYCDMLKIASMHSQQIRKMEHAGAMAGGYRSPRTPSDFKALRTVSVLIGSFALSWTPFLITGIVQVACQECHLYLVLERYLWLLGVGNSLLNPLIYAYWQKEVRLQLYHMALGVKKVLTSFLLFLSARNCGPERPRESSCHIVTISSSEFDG
# Assay: LANCE Ultra cAMP assay: stimulation of GPR119-mediated cAMP production in CHO cells stably expressing human GPR119 receptor
# Type: cell-based
# Conditions: for Emax: CHO
# Description: The potency of GPR119 receptor agonists was assessed by measuring the stimulation of GPR119-mediated cAMP production with LANCE Ultra cAMP assay (Perkin Elmer, TRF0264) in CHO cells stably expressing human GPR119 receptor (Chantest, cat. #A633). CHO-GPR119 cells were cultured in DMEM/F12 medium supplemented with 10% FBS and 1% NEAA at 37° C., 5% CO2, aliquoted and frozen in liquid nitrogen.
# (§1) For assay, cells were thawed in a water bath at 37° C., washed in Hank's Balanced Salt Solution (HBSS) and resuspended in Stimulation Buffer 1 (SB1) for 30 min: 5 mM HEPES, pH 7.2-7.4, 0.1% BSA in HBSS. […] The ULight-anti-cAMP antibody (Perkin Elmer, TRF0264) was added to the cell suspension making Mix [Cell suspension/4× ULight-anti-cAMP antibodies]. […] The assay plate was centrifuged 200 g, 5 sec.
# Serial dilution (100×) of tested compounds were prepared in DMSO in the range of from 30 nM to 1 mM with half-log step in 384-well plates (Greiner, 781280) using Biomek 2000. 10 test concentrations in two repeats were prepared for each CRC. […] The assay plate was incubated 30 minutes at room temperature on a shaker, 250 rpm to allow GPR119 receptor stimulation. The cAMP level was determined according to the standard kit supplier protocol (PerkinElmer, cat. #TRF0264).
# (§2) The stock solution of the Eu-cAMP tracer (Perkin Elmer, TRF0264) was diluted 1:100 in cAMP Detection Buffer (Perkin Elmer, TRF0264), making 2× working concentration and added to the assay plate, 10 μL per well. Assay plate was centrifuged 180 g, 1 sec. Then the assay plate was incubated for 60′ at room temperature on shaker, 250 rpm to allow cAMP detection. The TR-FRET signal was measured at Ex-340 nm/Em-615 and Ex-340 nm/Em-665 nm on the reader Tecan M1000. 0% of cAMP stimulation corresponds to the cells with DMSO only, 100% of cAMP stimulation corresponds to the cells with 10 uM Forskolin. The EC50 value defined as the concentration of the drug that gives half-maximal response, were calculated using GraphPad Prizm 5.0 software with forskolin was used as references at each test. Entries 1-17 in Table A-2 show the biological activity of certain representative compounds using the protocol as described above.
# as §1, with “cell suspension,” for “cell suspension”
# as §2, with “1-14” for “1-17”, “B-2” for “A-2”
# [1] = Table A-2 entries 18-25, modified protocol, 500 cells/well, read-out: % cAMP Max. relative to forscolin
# [2] = Table A-2 entries 18-25, modified protocol, 500 cells/well
# [3] = Table B-2 entries 1-14, protocol as described (800 000 cells/mL, 5 uL/well), CHO-GPR119 cells
# [4] = Table B-2 entries 15-39, modified protocol, 500 cells/well, read-out: % cAMP Max.
# [5] = Table B-2 entries 15-39, modified protocol, 500 cells/well
structure (smiles),measurement,setting,value
"COc1cnc(N2CCC(COc3ccc(-c4ccc5c(c4)OCS5(=O)=O)cc3F)CC2)nc1 [Example A-67, 6-(3-Fluoro-4-(1-(5-methoxypyrimidin-2-yl)piperidin-4-yl)methoxy)phenyl-2H-benzo[d][1,3]oxathiole 3,3-dioxide]",Emax,[1],72%
same,EC50,[2],21.4 nM
CCc1cnc(N2CCC[C@@H]2COc2ccc(-c3ccc4c(c3)OCS4(=O)=O)cc2F)nc1 [Example A-71],Emax,[1],51%
same,EC50,[2],1690 nM
"CCc1cnc(N2CCC(COc3cnc(-c4ccc5c(c4)OCS5(=O)=O)nc3)CC2)nc1 [Example A-76, 6-(5-((1-(5-Ethylpyrimidin-2-yl)piperidin-4-yl)methoxy)pyrimidin-2-yl)-2H-benzo[d][1,3]oxathiole 3,3-dioxide]",Emax,[1],87%
same,EC50,[2],8.2 nM
CCc1cnc(N2CCC[C@H]2COc2ccc(-c3ccc4c(c3)OCS4(=O)=O)cc2F)nc1 [Example A-80],Emax,[1],25%
same,EC50,[2],1310 nM
"CCc1cnc(N2CC[C@H](COc3ccc(-c4ccc5c(c4)OCS5(=O)=O)cc3F)C2)nc1 [Example A-86, (S)-6-(4-((1-(5-Ethylpyrimidin-2-yl)pyrrolidin-3-yl)methoxy)-3-fluorophenyl)-2H-benzo[d][1,3]oxathiole 3,3-dioxide]",Emax,[1],96%
same,EC50,[2],166 nM
"O=S1(=O)COc2cc(-c3ccc(OC[C@H]4CCN(c5ncc(Cl)cn5)C4)c(F)c3)ccc21 [Example A-89, (S)-6-(4-((1-(5-Chloropyrimidin-2-yl)pyrrolidin-3-yl)methoxy)-3-fluorophenyl)-2H-benzo[d][1,3]oxathiole 3,3-dioxide]",Emax,[1],93%
same,EC50,[2],46 nM
"CCc1ccnc(N2CC[C@H](COc3ccc(-c4ccc5c(c4)OCS5(=O)=O)cc3F)C2)n1 [Example A-92, (S)-6-(4-((1-(4-Ethylpyrimidin-2-yl)pyrrolidin-3-yl)methoxy)-3-fluorophenyl)-2H-benzo[d][1,3]oxathiole 3,3-dioxide]",Emax,[1],90%
same,EC50,[2],58 nM
Fc1cc(-c2ccc3c(c2)OCS3)ccc1OCC1CCN(c2ncc(Cl)cn2)CC1 [Example B-12],EC50,[3],280 nM
"[O-][S+]1COc2cc(-c3ccc(OCC4CCN(c5ncc(Cl)cn5)CC4)c(F)c3)ccc21 (stereo not shown) [Example B-16, 6-(4-((1-(5-Chloropyrimidin-2-yl)piperidin-4-yl)methoxy)-3-fluorophenyl)-2H-benzo[d][1,3]oxathiole 3-oxide]",EC50,[3],2.3 nM
"CC(C)(C)OC(=O)N1CCC(COc2ccc(-c3ccc4c(c3)OC[S+]4[O-])cc2F)CC1 (stereo not shown) [Example B-17, tert-Butyl 4-((2-fluoro-4-(3-oxido-1,3-benzoxathiol-6-yl)phenoxy)methyl) piperidine-1-carboxylate]",EC50,[3],> 100 nM
[O-][S+]1COc2cc(-c3ccc(OCC4CCNCC4)c(F)c3)ccc21 (stereo not shown) [Example B-18],EC50,[3],> 500 nM
CCc1cnc(N2CCC(COc3ccc(-c4ccc5c(c4)OC[S+]5[O-])cc3F)CC2)nc1 (stereo not shown) [Example B-19],EC50,[3],4.8 nM
"CC(C)CC(=O)N1CCC(COc2ccc(-c3ccc4c(c3)OC[S+]4[O-])cc2F)CC1 (stereo not shown) [Example B-23, 1-(4-((2-Fluoro-4-(3-oxido-2H-benzo[d][1,3]oxathiol-6-yl)phenoxy)methyl)-piperidin-1-yl)-3-methylbutane-1-one]",EC50,[3],46.2 nM
"COc1cnc(N2CCC(COc3ccc(-c4ccc5c(c4)OC[S+]5[O-])cc3F)CC2)nc1 (stereo not shown) [Example B-24, 6-(3-Fluoro-4-((1-(5-methoxypyrimidin-2-yl)piperidin-4-yl)methoxy)phenyl)-2H-benzo[d][1,3]oxathiole 3-oxide]",EC50,[3],2.3 nM
CCc1ccnc(N2CCC(COc3ccc(-c4ccc5c(c4)OC[S+]5[O-])cc3F)CC2)n1 (stereo not shown) [Example B-25],EC50,[3],31.8 nM
CCc1ccnc(N2CCC(COc3ccc(-c4ccc5c(c4)OCS5)cc3F)CC2)n1 [Example B-26],EC50,[3],> 500 nM
"CCOc1cnc(N2CCC(COc3ccc(-c4ccc5c(c4)OC[S+]5[O-])cc3F)CC2)nc1 (stereo not shown) [Example B-27, 6-(4-((1-(5-Ethoxypyrimidin-2-yl)piperidin-4-yl)methoxy)-3-fluorophenyl)-2H-benzo[d][1,3]oxathiole 3-oxide]",EC50,[3],4.7 nM
"CC(C)c1cnc(N2CCC(COc3ccc(-c4ccc5c(c4)OC[S+]5[O-])cc3F)CC2)nc1 (stereo not shown) [Example B-28, 6-(3-Fluoro-4-((1-(5-isopropylpyrimidin-2-yl)piperidin-4-yl)methoxy)phenyl)-2H-benzo[d][1,3]oxathiole 3-oxide]",EC50,[3],3 nM
"[O-][S+]1COc2cc(-c3ccc(OCC4CCN(c5ccc(C(F)(F)F)cn5)CC4)c(F)c3)ccc21 (stereo not shown) [Example B-29, 6-(3-Fluoro-4-((1-(5-(trifluoromethyl)pyridin-2-yl)piperidin-4-yl)methoxy)phenyl)-2H-benzo[d][1,3]oxathiole 3-oxide]",EC50,[3],52 nM
"[O-][S@+]1COc2cc(-c3ccc(OCC4CCN(c5ncc(Cl)cn5)CC4)c(F)c3)ccc21 [Example B-32, (S)-6-(4-((1-(5-chloropyrimidin-2-yl)piperidin-4-yl)methoxy)-3-fluorophenyl)-2H-benzo[d][1,3]oxathiole 3-oxide]",EC50,[3],1.2 nM
"CCc1ccnc(N2CCC(COc3ccc(-c4ccc5c(c4)OC[S+]5[O-])cc3F)CC2)n1 (stereo not shown) [Example B-35, 6-(4-((1-(4-Ethylpyrimidin-2-yl)piperidin-4-yl)methoxy)-3-fluorophenyl)-2H-benzo[d][1,3]oxathiole 3-oxide]",Emax,[4],61%
same,EC50,[5],27.3 nM
"CCc1cnc(N2CCC(COc3ccc(-c4ccc5c(c4)OCS5)cc3F)CC2)nc1 [Example B-37, 2-(4-((4-(Benzo[d][1,3]oxathiol-6-yl)-2-fluorophenoxy)methyl)piperidin-1-yl)-5-ethylpyrimidine]",Emax,[4],79%
same,EC50,[5],365 nM
"CC(C)c1cnc(N2CCC(COc3ccc(-c4ccc5c(c4)OCS5)cc3F)CC2)nc1 [Example B-38, 2-(4-((4-(Benzo[d][1,3]oxathiol-6-yl)-2-fluorophenoxy)methyl)piperidin-1-yl)-5-isopropylpyrimidine]",Emax,[4],78%
same,EC50,[5],10.5 nM
"COc1cnc(N2CCC(COc3ccc(-c4ccc5c(c4)OCS5)cc3F)CC2)nc1 [Example B-39, 2-(4-((4-(Benzo[d][1,3]oxathiol-6-yl)-2-fluorophenoxy)methyl)piperidin-1-yl)-5-methoxpyrimidine]",Emax,[4],64%
same,EC50,[5],2900 nM
"CC(C)CC(=O)N1CCC(COc2ccc(-c3ccc4c(c3)OCS4)cc2F)CC1 [Example B-40, 1-(4-((4-(Benzo[d][1,3]oxathiol-6-yl)-2-fluorophenoxy)methyl)piperidin-1-yl)-3-methylbutan-1-one]",Emax,[4],50%
same,EC50,[5],2000 nM
